{"source": "patent US20020010164A1", "about": "“Low oxygen content compositions of 1alpha, 25-dihydroxycholecalciferol” (priority 1999, published 2002)", "origin": "cited, not measured here", "data": [{"smiles": "C=C1/C(=C\\C=C2/CCCC3(C)C2CCC3C(C)CCCC(C)(C)O)CC(O)CC1O", "note": "(stereo not drawn) [1α, 25-dihydroxycholecalciferol]", "values": [{"measurement": "solubility in organic solvents", "setting": "organic solvents", "value": "soluble"}, {"measurement": "solubility in water", "setting": "water", "value": "practically insoluble"}]}]}
